Assays:
[1] = test system: advanced glycation end products (AGEs) formation; experiment: Bovine serum albumin-methylglyoxal assay on AGEs formation; format: biochemical; details: BSA 50 mg/mL + methylglyoxal 100 mM, 37°C, 24 h; mean ± SEM
Procedure: Bovine serum albumin (50 mg/mL) was incubated with methylglyoxal (100 mM) in sodium phosphate buffer (0.1 M, pH 7.4) in the presence of various concentrations of the compounds (including a control) at 37°C for 24 h. Then the fluorescent intensity was measured at an excitation wavelength of 355 nm and an emission wavelength of 460 nm with a luminescence spectrometer LS50B (Perkin-Elmer Ltd., Buckinghamshire, England). […] All reagents and samples were sterilized by filtration through […] membrane filters.

[2] = DPPH radical scavenging assay; details: for IC50: 15 min incubation in the dark, mean ± SEM; for inhibitory effect on DPPH (in words): at the same concentration when compared to other compounds
Procedure: The stable free radical, DPPH, was used to determine the free radical scavenging activity of the SHL extracts. Briefly, a 0.32 mM solution of DPPH in methanol was prepared, and then 180 µl of this solution was mixed with 30 µl of each sample (1.0 to 5.0 mg/mL in methanol). After 15 min of incubation in the dark, the decrease in the absorbance of the solution was measured at 570 nm on a microplate reader (EL800 Universal Microplate reader, Bio-Tek instruments, Winooski, VT, USA).

[3] = molecular target: T1, rat lens aldose reductase (RLAR) (Rattus norvegicus, UniProt P07943); experiment: In vitro determination of RLAR inhibition (NADPH decrease at 340 nm, DL-glyceraldehyde substrate); format: biochemical; details: crude RLAR from Sprague-Dawley rat lenses; mean ± SEM, three independent experiments in duplicate
T1 construct: the supernatant was collected and used as the RLAR; from tissue; host or cells: lens of Sprague-Dawley rats (crude homogenate supernatant)
Procedure: Crude RLAR was prepared as follows: lenses […] were removed from Sprague-Dawley rats and frozen at −70°C until use. Noncataractous transparent lenses were pooled and a homogenate was prepared in 0.1 M phosphate buffer saline (pH 6.2). RLAR homogenate was then centrifuged at 9600 ×g for 20 min. After centrifugation in a refrigerated centrifuge, the supernatant was collected and used as the RLAR. All procedures were carried out at 4°C [10].
RLAR activity was assayed spectrophotometrically by measuring the decrease in the absorption of NADPH at 340 nm over a 4 min period using DL-glyceraldehyde as the substrate. Each 1.0 mL cuvette contained equal units of the enzyme, 0.1 M sodium phosphate buffer (pH 6.2), 0.3 mM NADPH, with or without 10 mM of the substrate, and an inhibitor [11].

Compound	IC50 [1]	IC50 AGEs [1]	IC50 [2]	IC50 [3]	inhibitory effect on DPPH (in words) [2]
N=C(N)NN [Aminoguanidine, aminoguanidine, reference compound]	820 ± 79.4 µM	90.70 ± 8.71 µg/mL			
O=C(O)CCc1ccc(O)c(O)c1 [Compound 1, 3-(3,4-dihydroxyphenyl)-propionic acid]	184 ± 17.6 µM		110 ± 9.39 µM	> 1000 µM	
O=C(/C=C/c1ccc(O)c(O)c1)O[C@@H]1C[C@](O)(C(=O)O)C[C@@H](O)[C@H]1O [Compound 2, chlorogenic acid]	> 1000 µM			8.35 ± 0.45 µM	
O=C(/C=C/c1ccc(O)c(O)c1)OC[C@H]1O[C@@H](OCCc2ccc(O)c(O)c2)[C@H](O)[C@@H](O)[C@@H]1O [Compound 4, calceolarioside B]	> 1000 µM		94.6 ± 6.86 µM	24 ± 2.3 µM	
O=c1cc(-c2ccc(O)c(O[C@@H]3O[C@H](CO)[C@@H](O)[C@H](O)[C@H]3O)c2)oc2cc(O)cc(O)c12 [Compound 5, luteolin-3′-O-β-D-glucopyranoside]	118 ± 11.5 µM		96.3 ± 9.19 µM	7.34 ± 0.35 µM	
O=c1c(O[C@@H]2O[C@H](CO)[C@@H](O)[C@H](O)[C@H]2O)c(-c2ccc(O)c(O)c2)oc2cc(O)cc(O)c12 [Compound 6, quercetin-3-O-β-D-glucopyranoside]	> 1000 µM		122 ± 10.9 µM	10.4 ± 1.38 µM	
O=c1cc(-c2ccc(O)c(O)c2)oc2cc(O[C@@H]3O[C@H](CO)[C@@H](O)[C@H](O)[C@H]3O)cc(O)c12 [Compound 7, luteolin-7-O-β-D-glucopyranoside]	> 1000 µM		> 1000 µM	16.1 ± 1.2 µM	no an inhibitory effect
O=C1O[C@H]([C@@H](O)CO)C(O)=C1O [L-ascorbic acid, reference compound]			54.4 ± 5.73 µM		
O=c1cc(-c2ccc(O)c(O[C@@H]3O[C@H](CO)[C@@H](O)[C@H](O)[C@H]3O)c2)oc2cc(O)cc(O)c12 [luteolin-3′-O-β-D-glucopyranoside]				7.34 to 24 µM	
O=c1cc(-c2ccc(O)c(O)c2)oc2cc(O[C@@H]3O[C@H](CO)[C@@H](O)[C@H](O)[C@H]3O)cc(O)c12 [luteolin-7-O-β-D-glucopyranoside]				7.34 to 24 µM	
O=c1c(O[C@@H]2O[C@H](CO)[C@@H](O)[C@H](O)[C@H]2O)c(-c2ccc(O)c(O)c2)oc2cc(O)cc(O)c12 [quercetin-3-O-β-D-glucopyranoside]				7.34 to 24 µM	
neochlorogenic acid [Compound 3]	115 ± 10.5 µM		> 1000 µM	72 ± 25.8 µM	no an inhibitory effect

From paper PMC5343222, “Inhibitory Activities of Stauntonia hexaphylla Leaf Constituents on Rat Lens Aldose Reductase and Formation of Advanced Glycation End Products and Antioxidant” (BioMed Research International, 2017)
